These are literature values, as cited in patent US20220117866A1, “ANHYDROUS ALCOHOL-FREE SILKY FRAGRANCE FORMULATION” (AKI, Inc., priority 2020, published 2022).

Structures can show the parent of a compound that is named as a salt.

The subject of this series is laboratory animals. The note with it: oral, dermal and inhalation routes.

Consider `CCOC(=O)CC(O)(CC(=O)OCC)C(=O)OCC` [Triethyl Citrate, Triethyl 2-hydroxypropane-1,2,3-tricarboxylate], for which the acute toxicity entry is recorded as “low”.
